Measurements from patent publication US20100120858A1, “Piperidine Derivatives” (Pfizer Inc., priority 2006, published 2010).

Columns and labels:
[1] = molecular target: human serotonin transporter (Homo sapiens, UniProt P31645); experiment: Human serotonin (hSERT) receptor binding, [125I]-RTI-55; conditions: membranes of HEK-293 cells transfected with human serotonin transporter cDNA, IC50 converted by Cheng-Prusoff
How it was run: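 Membranes from HEK-293 cells expressing human SERT were incubated 90 min at room temperature in Krebs-HEPES buffer pH 7.4 with […] [125I]-RTI-55 and compound (10^−5 to 10^−12 M), in duplicate. Nonspecific binding defined with 10 μM citalopram; IC50 converted to Ki by Cheng-Prusoff.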

[2] = molecular target: human norepinephrine transporter (Homo sapiens, UniProt P23975); experiment: Human norepinephrine (hNET) receptor binding, [125I]-RTI-55; conditions: membranes of HEK-293 cells transfected with human norepinephrine transporter cDNA; 50 pM [125I]-RTI-55; IC50 converted by Cheng-Prusoff
How it was run: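 Membranes from HEK-293 cells expressing human NET, incubated 90 min at room temperature with 50 pM [125I]-RTI-55 and compound (10^−5 to 10^−12 M) in Krebs-HEPES pH 7.4. Nonspecific binding defined with 10 μM desipramine; filter-bound counts gave IC50, converted to Ki by Cheng-Prusoff.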

human norepinephrine transporter, sequence (P23975 whole entry): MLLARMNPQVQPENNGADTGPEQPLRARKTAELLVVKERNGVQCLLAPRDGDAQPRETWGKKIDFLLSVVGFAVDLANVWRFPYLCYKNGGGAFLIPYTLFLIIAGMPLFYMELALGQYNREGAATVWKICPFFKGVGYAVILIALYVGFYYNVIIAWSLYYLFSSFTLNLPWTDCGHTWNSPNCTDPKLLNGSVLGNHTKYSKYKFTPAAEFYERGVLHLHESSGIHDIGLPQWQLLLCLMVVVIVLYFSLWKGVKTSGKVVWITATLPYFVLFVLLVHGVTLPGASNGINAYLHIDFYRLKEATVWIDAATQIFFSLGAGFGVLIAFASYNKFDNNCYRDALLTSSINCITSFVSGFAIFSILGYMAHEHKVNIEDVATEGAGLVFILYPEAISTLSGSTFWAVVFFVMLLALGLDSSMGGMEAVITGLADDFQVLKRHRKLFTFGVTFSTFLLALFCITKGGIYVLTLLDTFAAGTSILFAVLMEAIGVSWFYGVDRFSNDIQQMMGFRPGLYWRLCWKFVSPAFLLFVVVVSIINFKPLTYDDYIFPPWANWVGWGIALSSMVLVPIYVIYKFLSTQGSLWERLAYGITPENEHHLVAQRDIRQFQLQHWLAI
human serotonin transporter, sequence (P31645 whole entry): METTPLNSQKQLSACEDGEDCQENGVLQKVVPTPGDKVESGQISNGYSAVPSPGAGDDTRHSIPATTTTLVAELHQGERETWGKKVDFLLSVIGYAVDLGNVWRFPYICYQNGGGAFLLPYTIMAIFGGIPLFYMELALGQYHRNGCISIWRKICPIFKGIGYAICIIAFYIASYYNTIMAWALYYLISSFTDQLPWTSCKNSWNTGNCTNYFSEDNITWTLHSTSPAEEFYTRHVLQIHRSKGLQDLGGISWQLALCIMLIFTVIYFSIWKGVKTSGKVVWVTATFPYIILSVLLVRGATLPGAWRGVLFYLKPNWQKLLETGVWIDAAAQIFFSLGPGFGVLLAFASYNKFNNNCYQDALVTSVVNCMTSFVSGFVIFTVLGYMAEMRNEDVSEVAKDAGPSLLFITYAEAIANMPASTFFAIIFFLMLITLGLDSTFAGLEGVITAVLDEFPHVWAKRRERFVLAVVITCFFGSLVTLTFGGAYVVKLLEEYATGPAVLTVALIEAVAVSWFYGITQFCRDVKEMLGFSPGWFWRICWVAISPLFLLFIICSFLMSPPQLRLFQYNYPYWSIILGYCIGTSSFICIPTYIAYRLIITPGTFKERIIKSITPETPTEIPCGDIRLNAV

| melting point | Ki [1] | Ki [2] | Compound |
| --- | --- | --- | --- |
| 130 to 131 °C | 803 nM | 140 nM | Fc1ccc(Oc2ncccc2OC[C@@H]2CCCNC2)cc1F.O=C(O)/C=C/C(=O)O [Example 63, (R)-2-(3,4-difluoro-phenoxy)-3-(piperidin-3-ylmethoxy)-pyridine fumaric acid] |
| 169 to 170 °C | 2200 nM | 7 nM | Cc1ccc(Oc2ncccc2OC[C@H]2CCCNC2)cc1C.O=C(O)/C=C/C(=O)O [Example 65, (S)-2-(3,4-dimethyl-phenoxy)-3-(piperidin-3-ylmethoxy)-pyridine fumaric acid] |
| 143 to 144 °C (dec.) | 2900 nM | 20 nM | Fc1ccc(Oc2ncccc2OC[C@H]2CCCNC2)cc1Cl.O=C(O)/C=C/C(=O)O [Example 66, (S)-2-(3-chloro-4-fluoro-phenoxy)-3-(piperidin-3-ylmethoxy)-pyridine fumaric acid] |
| 136 to 138 °C | 3300 nM | 6 nM | Cc1cc(Oc2ncccc2OC[C@H]2CCCNC2)ccc1F.O=C(O)/C=C/C(=O)O [Example 67, (S)-2-(4-fluoro-3-methyl-phenoxy)-3-(piperidin-3-ylmethoxy)-pyridine fumaric acid] |
| 130 to 132 °C | 5800 nM | 6 nM | Cc1cccc(Oc2ncccc2OC[C@H]2CCCNC2)c1.O=C(O)/C=C/C(=O)O [Example 68, (S)-2-(3-methyl-phenoxy)-3-(piperidin-3-ylmethoxy)-pyridine fumaric acid] |
| 150 to 151 °C | 5500 nM | 4 nM | Fc1cc(Oc2ncccc2OC[C@H]2CCCNC2)ccc1Cl.O=C(O)/C=C/C(=O)O [Example 69, (S)-2-(4-chloro-3-fluoro-phenoxy)-3-(piperidin-3-ylmethoxy)-pyridine fumaric acid] |
| 144 to 146 °C | 9700 nM | 102 nM | FC(F)(F)Oc1cccc(Oc2ncccc2OC[C@H]2CCCNC2)c1.O=C(O)/C=C/C(=O)O [Example 70, (S)-3-(piperidin-3-ylmethoxy)-2-(3-trifluoromethoxy-phenoxy)-pyridine fumaric acid] |
| 189 to 190 °C (dec.) | 6600 nM | 2 nM | Fc1ccc(Oc2ncccc2OC[C@H]2CCCNC2)c(Cl)c1.O=C(O)/C=C/C(=O)O [Example 71, (S)-2-(2-chloro-4-fluoro-phenoxy)-3-(piperidin-3-ylmethoxy)-pyridine fumaric acid] |
| 182 to 183 °C (dec.) | 3300 nM | 2 nM | Fc1cccc(F)c1Oc1ncccc1OC[C@H]1CCCNC1.O=C(O)/C=C/C(=O)O [Example 72, (S)-2-(2,6-difluoro-phenoxy)-3-(piperidin-3-ylmethoxy)-pyridine fumaric acid] |
| 165 to 167 °C (dec.) | > 10000 nM | 4 nM | Cc1ccccc1Oc1ncccc1OC[C@H]1CCCNC1.O=C(O)/C=C/C(=O)O [Example 73, (S)-2-(2-methyl-phenoxy)-3-(piperidin-3-ylmethoxy)-pyridine fumaric acid] |
| 129 to 134 °C (dec.) | > 10000 nM | 11 nM | CC(C)Oc1ccccc1Oc1ncccc1OC[C@H]1CCCNC1.O=C(O)/C=C/C(=O)O [Example 74, (S)-2-(2-isopropoxy-phenoxy)-3-(piperidin-3-ylmethoxy)-pyridine fumaric acid] |
| 112 to 114 °C (dec.) | > 10000 nM | 760 nM | CC(C)c1ccccc1Oc1ncccc1OC[C@H]1CCCNC1.O=C(O)/C=C/C(=O)O [Example 75, (S)-2-(2-isopropyl-phenoxy)-3-(piperidin-3-ylmethoxy)-pyridine fumaric acid] |
| 183 to 184 °C (dec.) | 4800 nM | 4 nM | Cc1ccc(Cl)c(Oc2ncccc2OC[C@H]2CCCNC2)c1.O=C(O)/C=C/C(=O)O [Example 76, (S)-2-(2-chloro-5-methyl-phenoxy)-3-(piperidin-3-ylmethoxy)-pyridine fumaric acid] |
